Reference: patent publication US20230217975A1, “PERFUME COMPOSITION” (AJINOMOTO CO., INC., priority 2020, published 2023)

Tests used:
[1] = test system: panel of 4 experts; assay: Sensory evaluation of strength of mouth-coating feel in mayonnaise (Examples 1, 5, 6); format: in vivo; conditions: for strength of mouth-coating feel, single component compound (II) / strength of mouth-coating feel, two components compound (II) and cyclotene / strength of mouth-coating feel, two components compound (II) and β-caryophyllene oxide / strength of mouth-coating feel, three components compound (II), β-caryophyllene oxide, and cyclotene: compound (II) 10 weight ppb; for strength of mouth-coating feel, two components compound (II) and cyclotene / strength of mouth-coating feel, three components compound (II), β-caryophyllene oxide, and cyclotene: cyclotene 500 weight ppb; for strength of mouth-coating feel, two components compound (II) and β-caryophyllene oxide / strength of mouth-coating feel, three components compound (II), β-caryophyllene oxide, and cyclotene: β-caryophyllene oxide 500 weight ppb; for strength of mouth-coating feel, no use of compound (II), single component: 500 weight ppb as printed in b569; for strength of mouth-coating feel, three components compound (II), β-caryophyllene oxide, and cyclotene: tested at 0.01 µg/mL; for strength of mouth-coating feel, two components compound (II) and cyclotene: tested at 0.01 µg/mL; for strength of mouth-coating feel, two components compound (II) and β-caryophyllene oxide: tested at 0.01 µg/mL
[2] = test system: panel of 4 experts; assay: as above; format: in vivo; conditions: for strength of mouth-coating feel, no use of compound (I), single component: 500 weight ppb; for strength of mouth-coating feel, single component compound (I) / strength of mouth-coating feel, two components compound (I) and furfural / strength of mouth-coating feel, two components compound (I) and β-caryophyllene oxide / strength of mouth-coating feel, three components compound (I), β-caryophyllene oxide and furfural: compound (I) 10 weight ppb; for strength of mouth-coating feel, two components compound (I) and furfural / strength of mouth-coating feel, three components compound (I), β-caryophyllene oxide and furfural: furfural 500 weight ppb; for strength of mouth-coating feel, two components compound (I) and β-caryophyllene oxide / strength of mouth-coating feel, three components compound (I), β-caryophyllene oxide and furfural: β-caryophyllene oxide 500 weight ppb; for strength of mouth-coating feel, three components compound (II), β-caryophyllene oxide, and cyclotene: tested at 0.01 µg/mL; for strength of mouth-coating feel, two components compound (II) and cyclotene: tested at 0.01 µg/mL; for strength of mouth-coating feel, two components compound (II) and β-caryophyllene oxide: tested at 0.01 µg/mL
Text: As a positive control, general commercially available mayonnaise (manufactured by Ajinomoto Co., Inc., trade name “Pure Select (registered trade mark) mayonnaise”, oil and fat content: 73%) was used. As a negative control (NC), commercially available mayonnaise (manufactured by Ajinomoto Co., Inc., trade name “Pure Select (registered trade mark) KOKUUMA (registered trade mark) 65% Calorie Cut”, oil and fat content: 23%) with a smaller oil and fat content as compared with positive control mayonnaise was used.
Experimental samples were produced by adding at least one compound selected from cyclotene, β-caryophyllene oxide, and furfural to the aforementioned commercially available mayonnaise (manufactured by Ajinomoto Co., Inc., trade name “Pure Select (registered trade mark) KOKUUMA (registered trade mark) 65% Calorie Cut”, oil and fat content: 23%) used as the negative control, such that the concentration of each compound in the food (mayonnaise) was a concentration shown in the following Tables 1 to 3 (in the following, each experimental sample is also to be referred to as “sample of experimental plot 1-1” to “sample of experimental plot 1-39”).
Cyclotene, octanoic acid, and isovaleric acid were added to the aforementioned commercially available mayonnaise (manufactured by Ajinomoto Co., Inc., trade name “Pure Select (registered trade mark) KOKUUMA (registered trade mark) 65% Calorie Cut”, oil and fat content: 23%) used as the negative control, such that the concentration of cyclotene in the food (mayonnaise) was 100 weight ppb, the concentration of octanoic acid was 200 weight ppb, and the concentration of isovaleric acid was 100 weight ppb to produce the sample of control plot 1.
A sensory evaluation was performed on the strength of mouth-coating feel of experimental samples, and the presence or absence of off-flavor.
For the evaluation of a mouth-coating feel, a panel of 4 experts ate each mayonnaise of positive control, negative control and experimental sample (samples of experimental plots 1-1 to 1-39 and control plot 1), and graded each experimental sample in 0.1 point increments (non-blind) in the range of 0.0 to 5.0 points, with the positive control being 5.0 points and the negative control being 0.0 point, by averaging the obtained scores of the panel of 4 experts. When the score was 1.0 or more, it was determined that there was an effect of enhancing the mouth-coating feel. The panel of 4 experts was trained in advance so that they have common understanding as to the degree of change in the mouth-coating feel that is required to change the score by 0.1 point.
Experimental samples were produced by adding at least one compound selected from compound (I) shown in the following Table 8 (any of cyclotene, γ-butyrolactone, 2-methyltetrahydrofuran-3-one, α-angelicalactone, maltol, 3-methyl-1,2-cyclohexanedione, γ-dodecanolactone, 5-dodecanolide, 4,5-dimethyl-3-hydroxy-2,5-dihydrofuran-2-one, and D-camphor), β-caryophyllene oxide, and furfural to the aforementioned commercially available mayonnaise (manufactured by Ajinomoto Co., Inc., trade name “Pure Select (registered trade mark) KOKUUMA (registered trade mark) 65% Calorie Cut”, oil and fat content: 23%) used as the negative control. Compound (I) was added such that the concentration of compound (I) in the food (mayonnaise) was 10 weight ppb, β-caryophyllene oxide was added such that the concentration of β-caryophyllene oxide in the food (mayonnaise) was 500 weight ppb, and furfural was added such that the concentration of furfural in the food (mayonnaise) was 500 weight ppb.
A sensory evaluation was performed on the strength of mouth-coating feel of experimental samples in the same manner as in Example 1.

| Structure (SMILES) | strength of mouth-coating feel, single component compound (II) [1] | strength of mouth-coating feel, two components compound (II) and cyclotene [1] | strength of mouth-coating feel, two components compound (II) and β-caryophyllene oxide [1] | strength of mouth-coating feel, three components compound (II), β-caryophyllene oxide, and cyclotene [1] | strength of mouth-coating feel, no use of compound (I), single component [2] | strength of mouth-coating feel, no use of compound (II), single component [1] | strength of mouth-coating feel, single component compound (I) [2] | strength of mouth-coating feel, two components compound (I) and furfural [2] | strength of mouth-coating feel, two components compound (I) and β-caryophyllene oxide [2] | strength of mouth-coating feel, three components compound (I), β-caryophyllene oxide and furfural [2] |
| --- | --- | --- | --- | --- | --- | --- | --- | --- | --- | --- |
| OCc1ccco1 [furfuryl alcohol] | 0.1 | 2.2 | 2.0 | 4.1 | – | – | – | – | – | – |
| C=C1CC[C@H]2O[C@]2(C)CC[C@@H]2[C@@H]1CC2(C)C [β-caryophyllene oxide] | – | – | – | – | 1.5 | 1.5 | – | – | – | – |
| Cc1occc(=O)c1O [maltol] | – | – | – | – | – | – | 0.4 | 2.3 | 3.0 | 4.2 |
| CCC(=O)OCc1ccco1 [furfuryl propionate] | 0.2 | 2.4 | 2.2 | 4.3 | – | – | – | – | – | – |
| O=C1CCCO1 [γ-butyrolactone] | – | – | – | – | – | – | 0.5 | 2.2 | 3.2 | 4.2 |
| CC1OCCC1=O (stereo not shown) [2-methyltetrahydrofuran-3-one] | – | – | – | – | – | – | 0.5 | 2.4 | 3.2 | 4.2 |
| CC(=O)c1cc(C)oc1C [3-acetyl-2,5-dimethylfuran] | 0.2 | 2.5 | 2.0 | 4.2 | – | – | – | – | – | – |
| CCCCCCCC1CCCC(=O)O1 (stereo not shown) [5-dodecanolide] | – | – | – | – | – | – | 0.5 | 2.4 | 3.2 | 4.2 |
| O=Cc1ccco1 [furfural] | 0.3 | 2.2 | 2.2 | 4.7 | 0.3 | – | – | – | – | – |
| CC1=CCC(=O)O1 [α-angelicalactone] | – | – | – | – | – | – | 0.5 | 2.3 | 2.9 | 4.2 |
| CC1(C)[C@@H]2CC[C@@]1(C)C(=O)C2 [D-camphor] | – | – | – | – | – | – | 0.4 | 2.6 | 3.1 | 4.2 |
| CC1CCCC(=O)C1=O (stereo not shown) [3-methyl-1,2-cyclohexanedione] | – | – | – | – | – | – | 0.5 | 2.3 | 3.0 | 4.4 |
| O=Cc1ccc(CO)o1 [5-(hydroxymethyl)furfural] | 0.2 | 2.5 | 2.2 | 4.3 | – | – | – | – | – | – |
| c1coc(Cn2cccc2)c1 [1-furfurylpyrrole] | 0.2 | 2.4 | 2.2 | 4.1 | – | – | – | – | – | – |
| CC(=O)c1ccco1 [2-acetylfuran] | 0.2 | 2.4 | 2.0 | 4.3 | – | – | – | – | – | – |
| Cc1ccc(C=O)o1 [5-methylfurfural] | 0.2 | 2.4 | 2.1 | 4.2 | – | – | – | – | – | – |
| CC1=C(O)C(=O)OC1C (stereo not shown) [4,5-dimethyl-3-hydroxy-2,5-dihydrofuran-2-one] | – | – | – | – | – | – | 0.3 | 2.3 | 2.9 | 4.2 |
| CC(=O)c1ccc(C)o1 [2-acetyl-5-methylfuran] | 0.2 | 2.2 | 2.2 | 4.4 | – | – | – | – | – | – |
| CC1=C(O)C(=O)CC1 [cyclotene] | – | – | – | – | – | 0.5 | 0.5 | 2.5 | 3.2 | 4.7 |
